Reference: ChEMBL document CHEMBL1201862, “PubChem BioAssay data set” (2004)
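A five-concentration, 48-hour dose response in 96-well plates underlies each endpoint, interpolated linearly between surrounding concentrations. Abbreviation: GI50, concentration required for 50% inhibition of growth.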 Active and inactive are the calls of the source. Cut-off read from the data, not from the text of the source: active = GI50 up to about 1.1 µM and inactive = higher.

Columns and labels:
Experiment in all cases: DTP human tumour cell line panel, 48 h
[1] = system: HOP-92
[2] = system: HOP-62
[3] = system: SF-539
[4] = system: Malme-3M
[5] = system: LOX IMVI
[6] = system: TK-10
[7] = system: EKVX
[8] = system: SW-620
[9] = system: NCI-H522
[10] = system: SF-268
[11] = system: HCT-116
[12] = system: HCT-15
[13] = system: NCI-H23
[14] = system: SF-295
[15] = system: RXF 393
[16] = system: SN12C
[17] = system: SNB-75
[18] = system: MOLT-4
[19] = system: HT-29
[20] = system: NCI-H460

SMILES	GI50 [1]	GI50 [2]	GI50 [3]	GI50 [4]	GI50 [5]	GI50 [6]	GI50 [7]	GI50 [8]	GI50 [9]	GI50 [10]	GI50 [11]	GI50 [12] [µM]	GI50 [13]	GI50 [14]	GI50 [15]	GI50 [16]	GI50 [17]	GI50 [18]	GI50 [19]	GI50 [20]
C[C@]12CC[C@H](O)CC1=CC[C@@H]1[C@@H]2CC[C@]2(C)C(=N/N)/C(=N\O)C[C@@H]12	2.42 µM (inactive)	45.9 µM (inactive)	> 100 µM (inactive)	27.1 µM (inactive)	57 µM (inactive)	> 100 µM (inactive)	74.1 µM (inactive)	60 µM (inactive)	31.7 µM (inactive)	59.7 µM (inactive)	43.4 µM (inactive)	3.94	> 100 µM (inactive)	35.1 µM (inactive)	> 100 µM (inactive)	> 100 µM (inactive)	7.5 µM (inactive)	16.4 µM (inactive)	36 µM (inactive)	–
CC(C)CC/N=c1/cc2n(-c3ccc(Cl)cc3)c3ccccc3nc-2cc1Nc1ccc(Cl)cc1	4.92 µM (inactive)	8.71 µM (inactive)	16 µM (inactive)	11.9 µM (inactive)	2.89 µM (inactive)	–	6.12 µM (inactive)	6.44 µM (inactive)	2.11 µM (inactive)	27.5 µM (inactive)	3.77 µM (inactive)	3.42	3.43 µM (inactive)	11.9 µM (inactive)	3.37 µM (inactive)	9.27 µM (inactive)	9.75 µM (inactive)	2.16 µM (inactive)	2.52 µM (inactive)	4.92 µM (inactive)
COC(=O)C(C(=O)C(=O)Nc1c(Cl)cc([N+](=O)[O-])cc1Cl)c1csc(-n2nc(C3=CCCCC3)cc2-c2ccccc2)n1 (stereo not given)	10.1 µM (inactive)	64.9 µM (inactive)	34.8 µM (inactive)	> 100 µM (inactive)	43.9 µM (inactive)	64.9 µM (inactive)	8.47 µM (inactive)	71 µM (inactive)	45.2 µM (inactive)	71.8 µM (inactive)	42.5 µM (inactive)	36.2	–	43.8 µM (inactive)	63.7 µM (inactive)	67.9 µM (inactive)	30.7 µM (inactive)	52.2 µM (inactive)	25.9 µM (inactive)	82.8 µM (inactive)
CC(C)[Si](CC1=CCCCC12C(=O)N(COCC[Si](C)(C)C)c1ccccc12)(C(C)C)C(C)C (stereo not given)	89.3 µM (inactive)	> 100 µM (inactive)	73.1 µM (inactive)	> 100 µM (inactive)	29.2 µM (inactive)	> 100 µM (inactive)	63.8 µM (inactive)	> 100 µM (inactive)	41.8 µM (inactive)	> 100 µM (inactive)	–	> 100	66.8 µM (inactive)	31.1 µM (inactive)	20.6 µM (inactive)	–	> 100 µM (inactive)	> 100 µM (inactive)	51.6 µM (inactive)	82.2 µM (inactive)
COC(=O)C1CCC2(CC1)NC(=O)NC2=O (stereo not given)	> 100 µM (inactive)	> 100 µM (inactive)	> 100 µM (inactive)	> 100 µM (inactive)	> 100 µM (inactive)	> 100 µM (inactive)	> 100 µM (inactive)	> 100 µM (inactive)	> 100 µM (inactive)	> 100 µM (inactive)	> 100 µM (inactive)	–	> 100 µM (inactive)	> 100 µM (inactive)	> 100 µM (inactive)	> 100 µM (inactive)	> 100 µM (inactive)	> 100 µM (inactive)	> 100 µM (inactive)	> 100 µM (inactive)
N#CNC(=N)NC(=O)/C=C/C=C/c1ccc(Cl)cc1	> 100 µM (inactive)	> 100 µM (inactive)	21.3 µM (inactive)	39.4 µM (inactive)	> 100 µM (inactive)	94.2 µM (inactive)	–	> 100 µM (inactive)	> 100 µM (inactive)	52.7 µM (inactive)	> 100 µM (inactive)	> 100	> 100 µM (inactive)	> 100 µM (inactive)	41.6 µM (inactive)	> 100 µM (inactive)	24.2 µM (inactive)	> 100 µM (inactive)	> 100 µM (inactive)	> 100 µM (inactive)
O=C(NCCCN1CCN(CCCNC(=O)Nc2cccc3ccccc23)CC1)Nc1cccc2ccccc12	13.8 µM (inactive)	11.7 µM (inactive)	18 µM (inactive)	3.15 µM (inactive)	8.49 µM (inactive)	14 µM (inactive)	9.82 µM (inactive)	8.32 µM (inactive)	15.8 µM (inactive)	17.3 µM (inactive)	14.4 µM (inactive)	16.6	16.2 µM (inactive)	13.9 µM (inactive)	11.1 µM (inactive)	16.3 µM (inactive)	15.5 µM (inactive)	–	16.8 µM (inactive)	–
COc1c2ccoc2c(S(=O)(=O)Nc2ccc(Cl)cc2)c2oc(C)cc(=O)c12	41.9 µM (inactive)	> 89.5 µM (inactive)	31.3 µM (inactive)	96.6 µM (inactive)	> 100 µM (inactive)	–	> 100 µM (inactive)	> 100 µM (inactive)	73.6 µM (inactive)	52.6 µM (inactive)	36 µM (inactive)	> 100	> 100 µM (inactive)	> 89.7 µM (inactive)	25.1 µM (inactive)	> 83.4 µM (inactive)	27.2 µM (inactive)	> 100 µM (inactive)	> 100 µM (inactive)	> 100 µM (inactive)
COc1cc2c(c(OC)c1OC)-c1ccc(SC)c(=O)cc1[C@@H](OC(=O)c1ccncc1)CC2	30.1 µM (inactive)	–	< 0.01 µM (active)	< 0.01 µM (active)	< 0.01 µM (active)	4.92 µM (inactive)	–	< 0.01 µM (active)	< 0.01 µM (active)	< 0.01 µM (active)	< 0.01 µM (active)	< 0.01	< 0.01 µM (active)	< 0.01 µM (active)	7.78 µM (inactive)	–	< 0.01 µM (active)	< 0.01 µM (active)	< 0.01 µM (active)	< 0.01 µM (active)
Cc1c([N+](=O)[O-])ccc2c(NCCCN(C)C)ccnc12	16.5 µM (inactive)	31.1 µM (inactive)	16.8 µM (inactive)	17.2 µM (inactive)	15.7 µM (inactive)	27.5 µM (inactive)	–	17.8 µM (inactive)	17.3 µM (inactive)	37 µM (inactive)	15.2 µM (inactive)	17.3	19 µM (inactive)	22.2 µM (inactive)	23.9 µM (inactive)	29.1 µM (inactive)	25.4 µM (inactive)	> 100 µM (inactive)	14.2 µM (inactive)	16.3 µM (inactive)
C/C=N\n1c(C)c(C#N)c(C#N)c1N	> 100 µM (inactive)	> 100 µM (inactive)	> 100 µM (inactive)	> 100 µM (inactive)	> 100 µM (inactive)	> 100 µM (inactive)	> 100 µM (inactive)	> 100 µM (inactive)	> 100 µM (inactive)	> 100 µM (inactive)	> 100 µM (inactive)	> 100	> 100 µM (inactive)	> 100 µM (inactive)	> 100 µM (inactive)	> 100 µM (inactive)	> 100 µM (inactive)	> 100 µM (inactive)	> 100 µM (inactive)	–
O=C(O)CCCCCCC[C@@H]1S[C@H]1CCCCCCO	33.8 µM (inactive)	> 100 µM (inactive)	> 100 µM (inactive)	> 100 µM (inactive)	> 100 µM (inactive)	–	> 100 µM (inactive)	> 100 µM (inactive)	> 100 µM (inactive)	> 100 µM (inactive)	> 100 µM (inactive)	> 100	> 100 µM (inactive)	> 100 µM (inactive)	> 100 µM (inactive)	> 100 µM (inactive)	> 100 µM (inactive)	> 100 µM (inactive)	> 100 µM (inactive)	> 100 µM (inactive)
CC1(C)OCC(C(O)C2OC(C)(C)OC2/C=N\O)O1 (stereo not given)	> 100 µM (inactive)	> 100 µM (inactive)	> 100 µM (inactive)	> 100 µM (inactive)	> 100 µM (inactive)	> 100 µM (inactive)	> 100 µM (inactive)	> 100 µM (inactive)	> 100 µM (inactive)	> 100 µM (inactive)	> 100 µM (inactive)	–	> 100 µM (inactive)	> 100 µM (inactive)	> 100 µM (inactive)	–	> 100 µM (inactive)	> 100 µM (inactive)	> 100 µM (inactive)	> 100 µM (inactive)
O=C(O/N=C1\CCCC\C1=C/c1ccccc1)c1ccc([N+](=O)[O-])cc1	> 100 µM (inactive)	> 100 µM (inactive)	41.3 µM (inactive)	> 100 µM (inactive)	> 100 µM (inactive)	–	> 100 µM (inactive)	> 100 µM (inactive)	69.8 µM (inactive)	> 100 µM (inactive)	> 100 µM (inactive)	> 100	87.5 µM (inactive)	69.8 µM (inactive)	> 100 µM (inactive)	> 100 µM (inactive)	41.7 µM (inactive)	> 100 µM (inactive)	> 100 µM (inactive)	> 100 µM (inactive)
O=c1oc2c/c(=C\c3ccccc3)c(=O)c3cccc1c3-2	19.6 µM (inactive)	19.9 µM (inactive)	31.5 µM (inactive)	24.2 µM (inactive)	19.7 µM (inactive)	> 100 µM (inactive)	75.3 µM (inactive)	25.1 µM (inactive)	22.8 µM (inactive)	24.1 µM (inactive)	25.7 µM (inactive)	36.6	36.7 µM (inactive)	> 100 µM (inactive)	32.5 µM (inactive)	47.6 µM (inactive)	41.4 µM (inactive)	–	55.6 µM (inactive)	74.5 µM (inactive)
